Laboratory results as given in US10814002B2, “Patch and method for producing the same” (HISAMITSU PHARMACEUTICAL CO., INC., priority 2012, dated 2020).
Structures can show the parent of a compound that is named as a salt.

Assay: Oral (sublingual) administration of 5 mg asenapine maleate to healthy adult men
Format: in vivo, human
Details: 5 mg asenapine maleate sublingual, healthy adult men (18)
Procedure: The N-desmethyl asenapine tends to cause adverse effects such as adverse effects on the cardiovascular system in comparison with asenapine. For example, in a case where 5 mg of asenapine maleate is orally administered (sublingual administration), the area under plasma concentration-time curve of the free asenapine for a period between 10 minutes and 72 hours (AUC0.17.72) can be 25,000 to 38,000 pg·hr/mL. In this case, N-desmethyl asenapine has an AUC0.17.72 of 10,000 to 17,000 pg·hr/mL, which is 40% or more of the […] of the free asenapine. In contrast, when approximately the same amount (4.8 mg) of asenapine is administrated using the patch of the present invention comprising the isopropyl palmitate in the adhesive agent layer, this makes it possible to sufficiently suppress the AUC of the asenapine metabolite while the free asenapine has an AUC equivalent to that in the case of the oral administration.
Furthermore, in a case where the patch obtained in Example 2 was administrated, the incidence proportion of adverse effects on the cardiovascular system in the AUC measurement test was 6%. […]

- AUC0.17.72 of the free asenapine (average value) (plasma, 10 minutes to 72 hours): 32,074 pg·hr/mL
SMILES: CN1C[C@@H]2c3ccccc3Oc3ccc(Cl)cc3[C@H]2C1 (relative stereo) [asenapine maleate, trans-5-chloro-2-methyl-2,3,3a,12b-tetrahydro-1H-diben z[2,3:6,7]oxepino[4,5-c]pyrrole]
- incidence proportion of adverse effects on the cardiovascular system: 39%
